# Experimental data from patent US20240279612A1, “LIVER ORGANOID MANUFACTURING METHODS, LIVER ORGANOIDS OBTAINED WITH THE SAME, AND USES THEREOF” (INSTITUT NATIONAL DE LA SANTÉ ET DE LA RECHERCHE MÉDICALE, priority 2021, published 2024).
# Read-outs that look alike come from different tables or passages of the source.
# Key:
# [1] = system: CYP2B6; experiment: Induction of CYP2B6 activity (bupropion to hydroxybupropion, LC-MS/MS) in PHH; conditions: PHH model, versus basal (DMSO 0.1%)
# Method: (§1) The primary human hepatocyte (PHH) cell line was obtained from four different healthy donors. PHH cells culture was performed according to the LONZA protocol (described in Document #BR-CryoHep-1 07/20 www.bioscience.lonza.com © 2020 Lonza Walkersville, Inc) with cell seeding at 70,000 cells/well in collagen I-coated 96-well plates (Corning® BioCoat™ Collagen I 96 Clear Well Plate). One hour after seeding, the PHH cells were cultured by the Sandwich method using Matrigel (Corning® Matrigel® Matrix) according to the protocol described in Gijbels et al. (Experimental Cholestasis Research, 2019). PHH cells were used 3 days later (short duration) or 2 weeks later (long duration) for the experiments. PHH cell line was cultivated at 37° C. in a humidified atmosphere with 5% CO2.
# (§2) PHH and LO grown in 96-well plates were treated by adding 200 μl/well and HLCs in 6-well plates by adding 1 ml/well of CYP's inductors in a hepatocyte culture medium (HCM) without EGF (Lonza—CC-3198).
# (§3) CYPs were induced by different types of inducers (SIGMA) at different concentrations for 3 days (as detailed in TABLE 3): Omeprazole (50 μM), Rifampicin (10 μM), Imidazole (500 μM), Phenobarbital (500 μM) and CITCO (1 μM). A control condition (namely “basal”) is performed with DMSO […] instead of inducer. […]
# [2] = system: liver organoid (LO); conditions: 48 h
# Method: Steatosis was induced by amiodarone at 20 μM or ethanol at […] for 2 days after the end of differentiation (Day 28). After fixation of the cells with paraformaldehyde (PFA 4% in PBS) for 15 minutes at room temperature, the lipids were labelled with Nile Red (50 ng/ml) for 1 hour at room temperature and then washed three times with PBS (1000 μl). At this step, samples can be stored in PBS at 4° C.
# (§4) After the acquisition of different Z-stacks of the LOs, the images were analyzed and quantified by the image analysis software Metaxpress developed by Molecular Devices.
# [3] = system: CYP1A2; experiment: Induction of CYP1A2 activity (phenacetin to acetaminophen, LC-MS/MS) in PHH; type: in vitro ADME, human; conditions: PHH model, omeprazole 50 μM for 3 days, versus basal (DMSO 0.1%)
# Method: as §1, §2, §3
# [4] = system: liver organoid (LO); experiment: Internalization of LDL-bodipy by liver organoids; type: cell-based, human; conditions: 20 hours, then 3 hours LDL-bodipy, compared to controls (FIG. 2)
# Method: Treatment with mevastatin (20, 25 and 30 μg/ml) or DMSO (0.1%) was performed for 20 hours after the end of differentiation (Day 28). After treatment, LOs were incubated with LDL-bodipy (Invitrogen, Ref: L3483) for 3 hours (INVITROGEN). Finally, once the incubation with LDL-bodipy was completed, the scaffolds were washed three times with HCM medium (LONZA) at 37° C. and then the cells were fixed with paraformaldehyde (PFA 4% in PBS) for 15 minutes at room temperature. At this stage, the samples can be stored in PBS at 4° C.
# as §4
# Concerning LDL internalization, it was noted that the LO model significatively reacted to mevastatin at concentrations of 20, 25 and 30 ug/ml with an increase in LDL-bodipy internalization of 14, 18 and 26% respectively compared to controls (FIG. 2).
smiles,measurement,setting,value
"CCC1(c2ccccc2)C(=O)NC(=O)NC1=O [phenobarbital, Phenobarbital]",induction of CYP2B6,[1]; phenobarbital 500 μM for 3 days,5.8 times
CCO [ethanol],increase in lipid accumulation,[2]; 0.1 µM,29%
CCCCc1oc2ccccc2c1C(=O)c1cc(I)c(OCCN(CC)CC)c(I)c1 [amiodarone],increase in lipid accumulation,[2]; 40 µM,60%
"COc1ccc2[nH]c([S+]([O-])Cc3ncc(C)c(OC)c3C)nc2c1 (centres unmarked) [omeprazole, Omeprazole]",induction of CYP1A2,[3],7.2 times
CC[C@H](C)C(=O)O[C@H]1CCC=C2C=C[C@H](C)[C@H](CC[C@@H]3C[C@@H](O)CC(=O)O3)[C@H]21 [mevastatin],increase in LDL-bodipy internalization,[4]; mevastatin 20 ug/ml,14%
same,increase in LDL-bodipy internalization,[4]; mevastatin 25 ug/ml,18%
same,increase in LDL-bodipy internalization,[4]; mevastatin 30 ug/ml,26%
Clc1ccc(-c2nc3sccn3c2/C=N/OCc2ccc(Cl)c(Cl)c2)cc1 [CITCO],induction of CYP2B6,[1]; CITCO 1 μM for 3 days,3.3 times
